For 21 compounds, inhibition and IC50 results are on record in patent US20250281424A1 (New York Blood Center, Inc, priority 2020, published 2025).

This assay has as its target T1, human PF4 (Homo sapiens, UniProt P02776).
T1 construct: PF4 is a 70 amino acid, lysine-rich 7.8 kDa platelet-specific protein; made in house; host or cells: Escherichia coli BL21DE3 pLysS (pT7-7) and/or Drosophila S2 cells
T1 sequence (P02776 32-101): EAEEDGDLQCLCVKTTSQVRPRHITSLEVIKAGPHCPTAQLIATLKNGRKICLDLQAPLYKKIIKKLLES
Briefly: Inhibition of PF4 tetramer formation (BS3 cross-linking, SDS-PAGE). The assay is classed as biochemical. To be noted: for inhibition at 1 µM: 1 μM inhibitor; for inhibition at 1 µM / inhibition at 3 µM / inhibition at 10 µM / inhibition at 5 µM: read-out: % inhibition of PF4 tetramer formation at single concentration of inhibitor; for inhibition at 3 µM: 3 μM inhibitor (column A); for inhibition at 10 µM: 10 μM inhibitor (column A); for inhibition at 5 µM: 5 μM inhibitor; for IC50: read-out: IC50 of PF4 tetramer formation inhibition. The method, boiled down: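 Monomer, dimer, trimer and tetramer fractions were quantified by densitometry after reducing 12% SDS-PAGE of BS3-cross-linked (0.2 mM, 30 min, room temperature) PF4. Before cross-linking, 10 μg/ml E. coli-expressed human WT PF4 in PBS was exposed to compound for 15 min at 37° C or 60 min at room temperature; controls lacked compound.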

Take `O=C(NCC1CCS(=O)(=O)C1)C1C(=O)c2ccc(Oc3ccc4c(c3)C(=O)C(C(=O)NCC3CCS(=O)(=O)C3)C4=O)cc2C1=O` (stereo not drawn) [Example 367, N-[(1,1-dioxo-1λ^6-thiolan-3-yl)methyl]-5-[(2-{[(1,1-dioxo-1λ^6-thiolan-3-yl)methyl]carbamoyl}-1,3-dioxo-2,3-dihydro-1H-inden-5-yl)oxy]-1,3-dioxo-2,3-dihydro-1H-indene-2-carboxamide]: the inhibition at 1 µM turned out to be 30% and the inhibition at 3 µM worked out at 77%.
For the compound `CCC(=O)C1C(=O)c2ccc(C(=O)c3ccc4c(c3)C(=O)C(C(=O)CC)C4=O)cc2C1=O` (stereo not drawn) [Example 324, 5-(1,3-dioxo-2-propanoyl-2,3-dihydro-1H-indene-5-carbonyl)-2-propanoyl-2,3-dihydro-1H-indene-1,3-dione], the inhibition at 10 µM came to 35%.
Consider `CC(C)(C)OC(=O)NCCCC(=O)C1C(=O)c2ccc(C(=O)c3ccc4c(c3)C(=O)C(C(=O)CCCNC(=O)OC(C)(C)C)C4=O)cc2C1=O` (stereo not drawn) [Example 386, tert-butyl N-(4-{5-[2-(4-{[(tert-butoxy)carbonyl]amino}butanoyl)-1,3-dioxo-2,3-dihydro-1H-indene-5-carbonyl]-1,3-dioxo-2,3-dihydro-1H-inden-2-yl}-4-oxobutyl)carbamate], for which the inhibition at 1 µM is 13% and the inhibition at 3 µM was 34%.
Regarding `CC(C)(C)OC(=O)N1CCC[C@@H]1C(=O)C1C(=O)c2ccc(C(=O)c3ccc4c(c3)C(=O)C(C(=O)[C@H]3CCCN3C(=O)OC(C)(C)C)C4=O)cc2C1=O` (stereo partly drawn) [Example 161], the inhibition at 5 µM is 87%, the inhibition at 10 µM stood at 93% and the IC50 (commonly the concentration needed to halve the response being measured) was 1 µM.
For `CC(=O)NCC(=O)C1C(=O)c2ccc(S(=O)(=O)c3ccc4c(c3)C(=O)C(C(=O)CNC(C)=O)C4=O)cc2C1=O` (stereo not drawn) [Example 175, N-[2-(5-{[2-(2-acetamidoacetyl)-1,3-dioxo-2,3-dihydro-1H-inden-5-yl]sulfonyl}-1,3-dioxo-2,3-dihydro-1H-inden-2-yl)-2-oxoethyl]acetamide] the same measures were 90%, 97% and 1.1 µM.
As for `CC(C)(C)OC(=O)N1CC[C@@H](C(=O)C2C(=O)c3ccc(S(=O)(=O)c4ccc5c(c4)C(=O)C(C(=O)[C@@H]4CCN(C(=O)OC(C)(C)C)C4)C5=O)cc3C2=O)C1` (stereo partly drawn) [Example 376, tert-butyl (3R)-3-[5-({2-[(3R)-1-[(tert-butoxy)carbonyl]pyrrolidine-3-carbonyl]-1,3-dioxo-2,3-dihydro-1H-inden-5-yl}sulfonyl)-1,3-dioxo-2,3-dihydro-1H-indene-2-carbonyl]pyrrolidine-1-carboxylate], the inhibition at 1 µM worked out at 22% and the inhibition at 3 µM is 62%.
For `COCCOCCNC(=O)C1C(=O)c2ccc(C#Cc3ccc4c(c3)C(=O)C(C(=O)NCCOCCOC)C4=O)cc2C1=O` (stereo not drawn) [Example 381, N-[2-(2-methoxyethoxy)ethyl]-5-[2-(2-{[2-(2-methoxyethoxy)ethyl]carbamoyl}-1,3-dioxo-2,3-dihydro-1H-inden-5-yl)ethynyl]-1,3-dioxo-2,3-dihydro-1H-indene-2-carboxamide] the same measures were 7% and 19%.
As for `Cc1ccc(NC(=O)C2C(=O)c3ccc(S(=O)(=O)c4ccc5c(c4)C(=O)C(C(=O)Nc4ccc(C)cc4)C5=O)cc3C2=O)cc1` (stereo not drawn) [Example 92, N-(4-methylphenyl)-5-({2-[(4-methylphenyl)carbamoyl]-1,3-dioxo-2,3-dihydro-1H-inden-5-yl}sulfonyl)-1,3-dioxo-2,3-dihydro-1H-indene-2-carboxamide], the inhibition at 5 µM is 60% and the inhibition at 10 µM was found to be 65%.
For `O=C(Nc1cccc(Cl)c1)C1C(=O)c2ccc(S(=O)(=O)c3ccc4c(c3)C(=O)C(C(=O)Nc3cccc(Cl)c3)C4=O)cc2C1=O` (stereo not drawn) [Example 86, N-(3-chlorophenyl)-5-({2-[(3-chlorophenyl)carbamoyl]-1,3-dioxo-2,3-dihydro-1H-inden-5-yl}sulfonyl)-1,3-dioxo-2,3-dihydro-1H-indene-2-carboxamide] the same measures were 73% and 90%.
Consider `O=C(CCC(=O)C1C(=O)c2ccc(Oc3ccc4c(c3)C(=O)C(C(=O)CCC(=O)c3cccc(Cl)c3Cl)C4=O)cc2C1=O)c1cccc(Cl)c1Cl` (stereo not drawn) [Example 258, 2-[4-(2,3-dichlorophenyl)-4-oxobutanoyl]-5-({2-[4-(2,3-dichlorophenyl)-4-oxobutanoyl]-1,3-dioxo-2,3-dihydro-1H-inden-5-yl}oxy)-2,3-dihydro-1H-indene-1,3-dione], for which the inhibition at 1 µM was found to be 18% and the inhibition at 3 µM stood at 33%.
In the same order, the values of `O=C1c2ccc(S(=O)(=O)c3ccc4c(c3)C(=O)C(C(=O)C3CC3)C4=O)cc2C(=O)C1C(=O)C1CC1` (stereo not drawn) [Example 402, 2-cyclopropanecarbonyl-5-[(2-cyclopropanecarbonyl-1,3-dioxo-2,3-dihydro-1H-inden-5-yl)sulfonyl]-2,3-dihydro-1H-indene-1,3-dione] are 24% and 28%.
Turning to `O=C(Nc1ccccc1)C1C(=O)c2ccc(S(=O)(=O)c3ccc4c(c3)C(=O)C(C(=O)Nc3ccccc3)C4=O)cc2C1=O` (stereo not drawn) [Example 37, 5,5′-sulphonylbis(1,3-dioxo-indan-2-carboxylic acid (phenyl)-amide)], the IC50 was about 1 µM.
As to `CC(C)(C)OC(=O)NCC(=O)C1C(=O)c2ccc(C(c3ccc4c(c3)C(=O)C(C(=O)CNC(=O)OC(C)(C)C)C4=O)(C(F)(F)F)C(F)(F)F)cc2C1=O` (stereo not drawn) [Example 228, tert-butyl N-[2-(5-{2-[2-(2-{[(tert-butoxy)carbonyl]amino}acetyl)-1,3-dioxo-2,3-dihydro-1H-inden-5-yl]-1,1,1,3,3,3-hexafluoropropan-2-yl}-1,3-dioxo-2,3-dihydro-1H-inden-2-yl)-2-oxoethyl]carbamate], the IC50 amounted to 2.8 µM.
Take `O=C(c1ccc2c(c1)C(=O)C(C(=O)Cn1cccn1)C2=O)c1ccc2c(c1)C(=O)C(C(=O)Cn1cccn1)C2=O` (stereo not drawn) [Example 126, 5-{1,3-dioxo-2-[2-(1H-pyrazol-1-yl)acetyl]-2,3-dihydro-1H-indene-5-carbonyl}-2-[2-(1H-pyrazol-1-yl)acetyl]-2,3-dihydro-1H-indene-1,3-dione]: the inhibition at 5 µM is 88%, the inhibition at 10 µM was 89% and the IC50 was 3.1 µM.
For `Cc1cccc(NC(=O)C2C(=O)c3ccc(C(=O)c4ccc5c(c4)C(=O)C(C(=O)Nc4cccc(C)c4)C5=O)cc3C2=O)c1` (stereo not drawn) [Example 38, 5,5′-carbonylbis(1,3-dioxo-n-(m-tolyl)-2,3-dihydro-1h-indene-2-carboxamide)] the same measures were 74%, 88% and 1.07 µM.
In the same order, the values of `CC[C@H](NC(=O)OCc1ccccc1)C(=O)C1C(=O)c2ccc(C(=O)c3ccc4c(c3)C(=O)C(C(=O)[C@H](CC)NC(=O)OCc3ccccc3)C4=O)cc2C1=O` (stereo partly drawn) [Example 165, benzyl N—[(S)-1-(5-{2-[(2S)-2-{[(benzyloxy)carbonyl]amino}butanoyl]-1,3-dioxo-2,3-dihydro-1H-indene-5-carbonyl}-1,3-dioxo-2,3-dihydro-1H-inden-2-yl)-1-oxobutan-2-yl]carbamate] are 75%, 75% and 3.3 µM.
Turning to `O=C1c2ccc(S(=O)(=O)c3ccc4c(c3)C(=O)C(C(=O)C3CCC3)C4=O)cc2C(=O)C1C(=O)C1CCC1` (stereo not drawn) [Example 296, 2-cyclobutanecarbonyl-5-[(2-cyclobutanecarbonyl-1,3-dioxo-2,3-dihydro-1H-inden-5-yl)sulfonyl]-2,3-dihydro-1H-indene-1,3-dione], the inhibition at 1 µM came to 22% and the inhibition at 3 µM was found to be 36%.
Consider `CCCCNC(=O)C1C(=O)c2ccc(C(=O)c3ccc4c(c3)C(=O)C(C(=O)NCCCC)C4=O)cc2C1=O` (stereo not drawn) [Example 77, N-butyl-5-[2-(butylcarbamoyl)-1,3-dioxo-2,3-dihydro-1H-indene-5-carbonyl]-1,3-dioxo-2,3-dihydro-1H-indene-2-carboxamide], for which the IC50 came to 2.3 µM.
On to `CCCCc1ccc(NC(=O)C2C(=O)c3ccc(C(=O)c4ccc5c(c4)C(=O)C(C(=O)Nc4ccc(CCCC)cc4)C5=O)cc3C2=O)cc1` (stereo not drawn) [Example 101, N-(4-butylphenyl)-5-{2-[(4-butylphenyl)carbamoyl]-1,3-dioxo-2,3-dihydro-1H-indene-5-carbonyl}-1,3-dioxo-2,3-dihydro-1H-indene-2-carboxamide], for which the inhibition at 5 µM came to 80% and the inhibition at 10 µM worked out at 71%.
In the case of `CC(C)(C)OC(=O)NCCC(=O)C1C(=O)c2ccc(C(=O)c3ccc4c(c3)C(=O)C(C(=O)CCNC(=O)OC(C)(C)C)C4=O)cc2C1=O` (stereo not drawn) [Example 268, tert-butyl N-(3-{5-[2-(3-{[(tert-butoxy)carbonyl]amino}propanoyl)-1,3-dioxo-2,3-dihydro-1H-indene-5-carbonyl]-1,3-dioxo-2,3-dihydro-1H-inden-2-yl}-3-oxopropyl)carbamate], the inhibition at 1 µM is 7% and the inhibition at 3 µM worked out at 25%.
As for `O=C(NCc1ccco1)C1C(=O)c2ccc(S(=O)(=O)c3ccc4c(c3)C(=O)C(C(=O)NCc3ccco3)C4=O)cc2C1=O` (stereo not drawn) [Example 104, N-[(furan-2-yl)methyl]-5-[(2-{[(furan-2-yl)methyl]carbamoyl}-1,3-dioxo-2,3-dihydro-1H-inden-5-yl)sulfonyl]-1,3-dioxo-2,3-dihydro-1H-indene-2-carboxamide], the IC50 worked out at 1.4 µM.
